In patent publication US9938273B2 (Plexxikon Inc., priority 2015, dated 2018):

How the values were obtained:
FLT3-D835Y = molecular target: T1, FLT3-D835Y (Homo sapiens, UniProt P36888, D835Y); assay: AlphaScreen kinase assay with recombinant enzyme, FLT3-D835Y; format: biochemical; details: 8pt, GMean
T1 construct: purchased Invitrogen PV3967
T1 sequence (P36888 27-993 D835Y): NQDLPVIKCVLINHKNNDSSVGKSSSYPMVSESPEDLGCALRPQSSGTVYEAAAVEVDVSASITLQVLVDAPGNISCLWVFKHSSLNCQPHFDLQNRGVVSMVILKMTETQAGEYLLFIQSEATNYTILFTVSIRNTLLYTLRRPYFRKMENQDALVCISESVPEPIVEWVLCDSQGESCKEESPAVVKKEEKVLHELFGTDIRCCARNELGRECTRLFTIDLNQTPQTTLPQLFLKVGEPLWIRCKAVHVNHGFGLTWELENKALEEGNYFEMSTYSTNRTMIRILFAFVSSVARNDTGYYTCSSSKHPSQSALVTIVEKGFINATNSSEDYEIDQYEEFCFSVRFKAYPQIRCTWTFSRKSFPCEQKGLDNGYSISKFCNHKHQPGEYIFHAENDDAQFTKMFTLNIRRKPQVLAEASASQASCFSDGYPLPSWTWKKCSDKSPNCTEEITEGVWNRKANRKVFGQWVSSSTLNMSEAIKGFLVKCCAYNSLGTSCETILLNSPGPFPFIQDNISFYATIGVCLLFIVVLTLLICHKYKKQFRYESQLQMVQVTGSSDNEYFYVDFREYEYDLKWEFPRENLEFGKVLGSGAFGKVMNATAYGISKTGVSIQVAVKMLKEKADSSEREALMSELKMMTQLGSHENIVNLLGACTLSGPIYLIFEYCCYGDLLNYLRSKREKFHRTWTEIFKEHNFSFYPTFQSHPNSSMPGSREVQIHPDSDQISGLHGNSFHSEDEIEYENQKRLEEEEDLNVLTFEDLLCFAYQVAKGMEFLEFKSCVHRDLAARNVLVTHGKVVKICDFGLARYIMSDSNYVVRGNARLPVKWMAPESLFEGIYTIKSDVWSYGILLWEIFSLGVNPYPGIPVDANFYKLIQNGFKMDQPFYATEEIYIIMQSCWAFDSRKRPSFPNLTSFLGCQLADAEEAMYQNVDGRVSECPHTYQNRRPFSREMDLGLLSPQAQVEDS
Method in brief: (§1)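 Compounds in DMSO added to enzyme plus biotin-poly(Glu4-Tyr) (30 nM) in assay buffer, then ATP added. Streptavidin donor beads added (20 min, RT), then PY20 acceptor beads (60 min, RT), both at 10 μg/mL final in stop/detection buffer. IC50 conditions: 10 μM FLT3-D835Y/ITD, 100 μM c-KIT.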

c-KIT = molecular target: T2, c-KIT (Homo sapiens, UniProt P10721); assay: AlphaScreen kinase assay with recombinant enzyme, c-KIT; format: biochemical; details: 100ATP, 8pt, GMean
T2 construct: purchased Millipore 14-559K
T2 sequence (P10721 26-976): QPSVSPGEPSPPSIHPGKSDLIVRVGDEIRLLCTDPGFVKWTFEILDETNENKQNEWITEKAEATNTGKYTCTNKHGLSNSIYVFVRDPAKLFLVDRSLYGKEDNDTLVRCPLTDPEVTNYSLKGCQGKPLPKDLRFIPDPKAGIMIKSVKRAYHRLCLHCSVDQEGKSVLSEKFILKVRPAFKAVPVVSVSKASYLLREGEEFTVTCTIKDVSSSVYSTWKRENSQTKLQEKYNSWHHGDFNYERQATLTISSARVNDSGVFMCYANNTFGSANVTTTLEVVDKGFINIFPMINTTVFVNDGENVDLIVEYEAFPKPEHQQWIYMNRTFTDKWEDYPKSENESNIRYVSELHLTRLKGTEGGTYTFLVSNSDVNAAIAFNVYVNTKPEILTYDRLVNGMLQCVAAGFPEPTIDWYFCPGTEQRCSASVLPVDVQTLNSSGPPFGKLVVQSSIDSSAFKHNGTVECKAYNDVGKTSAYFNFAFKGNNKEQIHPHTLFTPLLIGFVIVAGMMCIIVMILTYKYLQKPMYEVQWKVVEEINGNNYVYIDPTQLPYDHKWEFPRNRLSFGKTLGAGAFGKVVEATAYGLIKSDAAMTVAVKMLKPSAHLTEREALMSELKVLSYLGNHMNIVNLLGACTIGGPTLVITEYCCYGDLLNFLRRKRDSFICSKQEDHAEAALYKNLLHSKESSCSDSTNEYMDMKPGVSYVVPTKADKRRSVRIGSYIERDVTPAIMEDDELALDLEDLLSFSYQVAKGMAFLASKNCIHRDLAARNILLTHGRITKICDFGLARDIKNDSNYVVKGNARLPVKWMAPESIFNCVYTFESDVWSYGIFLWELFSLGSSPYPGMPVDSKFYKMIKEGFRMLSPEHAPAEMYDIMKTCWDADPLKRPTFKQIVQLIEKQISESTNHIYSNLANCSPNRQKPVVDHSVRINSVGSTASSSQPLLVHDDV
Method in brief: as §1

[1] = system: MOLM-14 D835Y cells, FLT3 ITD and FLT3 D835Y; assay: Cell proliferation assay (CellTiter-Glo), MOLM-14 D835Y; format: cell-based; details: Homo sapiens, 72 h, 3d-Growth, GMean
Method in brief: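 MOLM-14 AML cells (endogenous FLT3 ITD, AC220-selected D835Y or F691L variants) or murine Ba/F3 expressing full-length FLT3 ITD/D835Y, without IL-3 for FLT3 dependence, 1×10^4 cells/well. Eight-point 1:3 series from 1 μM final, 0.2% DMSO, 3 days at 37 °C. CellTiter-Glo luminescence (ATP) gave IC50.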

Compound | IC50 (FLT3-D835Y) | IC50 (c-KIT) | IC50 [1]
CONC(=O)c1cccc(-c2cnc3[nH]c(-c4ccccc4)cc3c2)c1 [Compound P-0003, N-methoxy-3-(2-phenyl-1H-pyrrolo[2,3-b]pyridin-5-yl)benzamide] | 0.0001 to 10 µM | 0.0001 to 10 µM | 
C#Cc1cc2cc(-c3cccc(S(=O)(=O)NC4CC4)c3)cnc2[nH]1 [Compound P-0004, N-cyclopropyl-3-(2-ethynyl-1H-pyrrolo[2,3-b]pyridin-5-yl)benzenesulfonamide] | 0.0001 to 10 µM | 0.0001 to 10 µM | 
NC(=O)Nc1ccc(-c2cnc3[nH]c(-c4ccccc4)cc3c2)cc1 [Compound P-0005, [4-(2-phenyl-1H-pyrrolo[2,3-b]pyridin-5-yl)phenyl]urea] | 10 to 50 µM | 0.0001 to 10 µM | 
CNC(=O)Nc1ccc(-c2cnc3[nH]c(-c4ccccc4)cc3c2)cc1 [Compound P-0006, 1-methyl-3-[4-(2-phenyl-1H-pyrrolo[2,3-b]pyridin-5-yl)phenyl]urea] | 0.0001 to 10 µM | 0.0001 to 10 µM | 
CN(C)S(=O)(=O)Nc1cccc(-c2cnc3[nH]c(-c4ccccc4)cc3c2)c1 [Compound P-0007, 5-[3-(dimethylsulfamoylamino)phenyl]-2-phenyl-1H-pyrrolo[2,3-b]pyridine] | 0.0001 to 10 µM | 10 to 50 µM | 
N[C@H]1CCN(C(=O)c2cccc(-c3cnc4[nH]c(-c5ccccc5)cc4c3)n2)C1 [Compound P-0015, [(3S)-3-aminopyrrolidin-1-yl]-[6-(2-phenyl-1H-pyrrolo[2,3-b]pyridin-5-yl)-2-pyridyl]methanone] | 0.0001 to 10 µM | 0.0001 to 10 µM | 
N[C@H]1CCN(C(=O)c2n[nH]c3ccc(-c4cnc5[nH]c(-c6ccccc6)cc5c4)cc23)C1 [Compound P-0016, [(3S)-3-aminopyrrolidin-1-yl]-[5-(2-phenyl-1H-pyrrolo[2,3-b]pyridin-5-yl)-1H-indazol-3-yl]methanone] | 0.0001 to 10 µM | 0.0001 to 10 µM | 
CC(C)(C)OC(=O)NC1CCN(C(=O)c2cccc(-c3cnc4[nH]c(-c5ccccc5)cc4c3)n2)CC1 [Compound P-0017, tert-butyl N-[1-[6-(2-phenyl-1H-pyrrolo[2,3-b]pyridin-5-yl)pyridine-2-carbonyl]-4-piperidyl]carbamate] | 0.0001 to 10 µM | 10 to 50 µM | 
CC(=O)NC1CCN(C(=O)c2cccc(-c3cnc4[nH]c(-c5ccccc5)cc4c3)n2)CC1 [Compound P-0020, N-[1-[6-(2-phenyl-1H-pyrrolo[2,3-b]pyridin-5-yl)pyridine-2-carbonyl]-4-piperidyl]acetamide] | 0.0001 to 10 µM | 0.0001 to 10 µM | 
CC(=O)NC1CCN(C(=O)c2n[nH]c3ccc(-c4cnc5[nH]c(-c6ccccc6)cc5c4)cc23)CC1 [Compound P-0021, N-[1-[5-(2-phenyl-1H-pyrrolo[2,3-b]pyridin-5-yl)-1H-indazole-3-carbonyl]-4-piperidyl]acetamide] | 0.0001 to 10 µM | 50 to 100 µM | 
CC(C)Oc1ccc(-c2cc3cc(-c4cccc(C(=O)NC(C)(C)C#N)n4)cnc3[nH]2)cn1 [Compound P-0190, N-(1-cyano-1-methyl-ethyl)-6-[2-(6-isopropoxy-3-pyridyl)-1H-pyrrolo[2,3-b]pyridin-5-yl]pyridine-2-carboxamide] | 0.0001 to 10 µM |  | 0.0001 to 10 µM
CC(C)Oc1ncc(-c2cc3cc(-c4cccc(C(=O)NC(C)(C)C#N)n4)cnc3[nH]2)cn1 [Compound P-0191, N-(1-cyano-1-methyl-ethyl)-6-[2-(2-isopropoxypyrimidin-5-yl)-1H-pyrrolo[2,3-b]pyridin-5-yl]pyridine-2-carboxamide] | 0.0001 to 10 µM |  | 0.0001 to 10 µM
Cc1nn(C(C)C)cc1-c1[nH]c2ncc(-c3cccc(C(=O)NC(C)(C)C#N)n3)cc2c1Cl [Compound P-0192] | 0.0001 to 10 µM |  | 0.0001 to 10 µM
CC(C)(C#N)NC(=O)c1cccc(-c2cnc3[nH]c(-c4cnn(CC(F)(F)F)c4)cc3c2)n1 [Compound P-0193, N-(1-cyano-1-methyl-ethyl)-6-[2-[1-(2,2,2-trifluoroethyl)pyrazol-4-yl]-1H-pyrrolo[2,3-b]pyridin-5-yl]pyridine-2-carboxamide] | 0.0001 to 10 µM |  | 0.0001 to 10 µM
CC(C)(C#N)NC(=O)c1cccc(-c2cnc3[nH]c(-c4ccc(C5(C#N)CC5)cc4)cc3c2)n1 [Compound P-0194, 6-[2-[4-(1-cyanocyclopropyl)phenyl]-1H-pyrrolo[2,3-b]pyridin-5-yl]-N-(1-cyano-1-methyl-ethyl)pyridine-2-carboxamide] | 0.0001 to 10 µM |  | 0.0001 to 10 µM
CC(C)(C#N)NC(=O)c1cccc(-c2cnc3[nH]c(-c4cncnc4)cc3c2)n1 [Compound P-0195, N-(1-cyano-1-methyl-ethyl)-6-(2-pyrimidin-5-yl-1H-pyrrolo[2,3-b]pyridin-5-yl)pyridine-2-carboxamide] | 0.0001 to 10 µM |  | 0.0001 to 10 µM
COc1ncc(-c2cc3cc(-c4cccc(C(=O)NC(C)(C)C#N)n4)cnc3[nH]2)cn1 [Compound P-0196, N-(1-cyano-1-methyl-ethyl)-6-[2-(2-methoxypyrimidin-5-yl)-1H-pyrrolo[2,3-b]pyridin-5-yl]pyridine-2-carboxamide] | 0.0001 to 10 µM |  | 0.0001 to 10 µM
CC(C)(C#N)NC(=O)c1cccc(-c2cnc3[nH]c(-c4ccc(N5CCOCC5)nc4)cc3c2)n1 [Compound P-0197, N-(1-cyano-1-methyl-ethyl)-6-[2-(6-morpholino-3-pyridyl)-1H-pyrrolo[2,3-b]pyridin-5-yl]pyridine-2-carboxamide] | 0.0001 to 10 µM |  | 0.0001 to 10 µM
CC(C)(C#N)NC(=O)c1cccc(-c2cnc3[nH]c(-c4cnc(N5CCOCC5)nc4)cc3c2)n1 [Compound P-0198, N-(1-cyano-1-methyl-ethyl)-6-[2-(2-morpholinopyrimidin-5-yl)-1H-pyrrolo[2,3-b]pyridin-5-yl]pyridine-2-carboxamide] | 0.0001 to 10 µM |  | 0.0001 to 10 µM
CC(C)(C#N)NC(=O)c1cccc(-c2cnc3[nH]c(-c4cccc(N5CCCS5(=O)=O)c4)cc3c2)n1 [Compound P-0199, N-(1-cyano-1-methyl-ethyl)-6-[2-[3-(1,1-dioxo-1,2-thiazolidin-2-yl)phenyl]-1H-pyrrolo[2,3-b]pyridin-5-yl]pyridine-2-carboxamide] | 0.0001 to 10 µM |  | 0.0001 to 10 µM
CC(C)(NC(=O)c1cccc(-c2cnc3[nH]c(-c4cnn(C5CCNCC5)c4)cc3c2)n1)C(N)=O [Compound P-0200, N-(2-amino-1,1-dimethyl-2-oxo-ethyl)-6-[2-[1-(4-piperidyl)pyrazol-4-yl]-1H-pyrrolo[2,3-b]pyridin-5-yl]pyridine-2-carboxamide] | 0.0001 to 10 µM |  | 0.0001 to 10 µM
CC(C)(C#N)NC(=O)c1cccc(-c2cnc3[nH]c(-c4cnc(N5CCCC5)nc4)cc3c2)n1 [Compound P-0202, N-(1-cyano-1-methyl-ethyl)-6-[2-(2-pyrrolidin-1-ylpyrimidin-5-yl)-1H-pyrrolo[2,3-b]pyridin-5-yl]pyridine-2-carboxamide] | 0.0001 to 10 µM |  | 0.0001 to 10 µM
CCOc1ncc(-c2cc3cc(-c4cccc(C(=O)NC(C)(C)C#N)n4)cnc3[nH]2)cn1 [Compound P-0203, N-(1-cyano-1-methyl-ethyl)-6-[2-(2-ethoxypyrimidin-5-yl)-1H-pyrrolo[2,3-b]pyridin-5-yl]pyridine-2-carboxamide] | 0.0001 to 10 µM |  | 0.0001 to 10 µM
CCc1ncc(-c2cc3cc(-c4cccc(C(=O)NC(C)(C)C#N)n4)cnc3[nH]2)cn1 [Compound P-0205, N-(1-cyano-1-methyl-ethyl)-6-[2-(2-ethylpyrimidin-5-yl)-1H-pyrrolo[2,3-b]pyridin-5-yl]pyridine-2-carboxamide] | 0.0001 to 10 µM |  | 0.0001 to 10 µM
CCCOc1ncc(-c2cc3cc(-c4cccc(C(=O)NC(C)(C)C#N)n4)cnc3[nH]2)cn1 [Compound P-0206, N-(1-cyano-1-methyl-ethyl)-6-[2-(2-propoxypyrimidin-5-yl)-1H-pyrrolo[2,3-b]pyridin-5-yl]pyridine-2-carboxamide] | 0.0001 to 10 µM |  | 0.0001 to 10 µM
